Holding throughout (format): cell-based, human
The subject of test [1] is PBMCs and pDC-depleted PBMCs. Nature of the test: IFN-α production in PBMCs and pDC-depleted PBMCs cultured with CpG and chemokines (ELISA). The note with it: CpG 0.25 μM + chemokine 10 μg/ml. As for the experimental part:
PBMCs were prepared using Ficoll-Paque density gradient (GE Healthcare) as previously described (Guiducci et al., 2008).
pDCs were isolated from PBMCs by positive selection using BDCA4-MicroBead Kit as previously described (Guiducci et al., 2008). pDC-depleted PBMC were prepared by removing BDCA4-positive cells from PBMC using microbeads.
5×10^5 PBMCs or pDC-depleted PBMCs were cultured in 96 wells plate and stimulated with 0.25 μM CpG DNA with or without 10 μg/ml CXCL4, CXCL10, CXCL12 or CCL5. Freshly isolated pDCs were resuspended at 5×10^4 cells/100 μl RPMI 1640 medium (Gibco) and stimulated with the 0.25 μM CpG with/without 10 μg/ml indicated chemokines. The supernatant was harvested after 18 h and IFN-α was measured by ELISA.
As shown above, CXCL4 can increase IFN-α production by TLR9-activated pDCs. Thus it was tested whether other chemokines may impact TLR9 signaling in pDCs. Purified pDCs were left unstimulated (Unstim.) or cultured with CpG (0.25 μM) alone or with the indicated chemokines at 10 μg/ml. IFN-α secretion was quantified by ELISA. Strikingly, it was observed that a set of chemokines, including CXCL4, CXL10, CXCL12 and CCL5, were able to superinduce TLR9-induced response by pDCs (FIG. 18A), while they had no effect when used alone (results not shown). […] This also raised questions as to the specificity and mechanism for this effect. First, as other DNA sensors have been described to induce IFN-α in immune cells (Barrat et al., 2016), it was tested to see if these chemokines altered the specificity of the CpGs for TLR9 and if the IFN-α response was restricted to pDCs. Total PBMCs or PBMCs where pDCs were depleted (PBMC-ΔpDCs) were incubated with CpGs and either CXCL4, CXCL10, CXCL12 or CCL5 and IFN-α production was quantified by ELISA.
(In an ELISA, binding on a coated surface is turned into a signal by an enzyme label.)

The next test has as its system healthy monocytes. Nature of the test: Cytokines in healthy monocytes with CXCL4.
Test [2] concerns TLR8-mediated activation of SSc pDCs. Put plainly: TLR8 activation assay of pDCs from SSc patients (ORN-8L with or without CXCL4). As to conditions: ORN-8L 200 μg/ml + CXCL4, 24 hours. The procedure:
PBMCs were prepared using Ficoll-Paque density gradient from fresh blood under internal Institutional Review Board-approved protocols. pDCs were isolated as previously described (Guiducci et al. 2008) using either using negative depletion (Miltenyi Biotech) or following cell sorting using a BD IFNLUX cell sorter. As part of the gating strategy, neutrophils were excluded by FSC/SSC and cells positive for CD14 (CD3 and CD19 as well) were first excluded in order to prevent the contamination by TLR8 positive cells and then positively gated on HLA-DR, CD123 and BDCA4 to purify the pDCs. All BDCA4+ cells also express BDCA2 (results not shown). As a result, pure pDCs were obtained and no markers for neutrophils (CD66) or myeloid cells were found by PCR. B cells were FACS sorted as CD19+ and monocytes as CD14+ cells. PBMCs were depleted of pDCs using BDCA4 beads from Miltenyi. pDCs were cultured at 10,000-30,000 cells per well in a 96-round bottom plate and incubated at 37° C., 5% CO2 and 95% humidity. After 24 hours of culture, the supernatant was collected for ELISA or Mutiplex cytokine assays. In some culture conditions, cells were cultured with the PI3Kδ inhibitor, CAL-101 (Selleck chemicals) for 24 hours. The RNA-based TLR8 agonist, ORN8-L previously described (Guidacci et al. 2013) was synthetized by Chemgenes Corporation. For the TLR8 activation assay, pDCs were incubated in complete media alone, 200 μg/ml ORN8-L in complete media or 200 μg/ml ORN8-L+ 10 μg/ml CXCL4 (R&D systems).
Supernatant from pDCs 24 hour culture was used for quantification of secreted chemokines and cytokines and measured with the use of an enzyme-linked immunosorbent assay (ELISA) or Luminex multiplex-beads immunoassay. CXCL4 ELISA (Ray Biotech) and IFNα, IP-10, IL-6, TNF Luminex assay (Millipore) was performed according to the manufacturer's protocol. Due to the variability in the number of cells obtained from the different patients and so we could compare the values across donors, all results were normalized to 10,000 cells. Of note, for all donors, pDCs were plated between 10,000-30,000 cells.
When purified pDCs from HDs or SSc patients were cultured with CXCL4 alone ([…]), there was no effect on IFN production.

Regarding “CXCL4: small chemokine of the CXC family, 70-amino acid protein released from alpha-granules of activated platelets”, the “IFN-α production in absence of the pDCs (PBMC-ΔpDCs versus total PBMCs)” value in test [1] is “dramatic decrease”. In addition, in the test with healthy monocytes, the “IFN-inducible IP-10 in healthy monocytes” value was “reduces”, the “IL-6 in healthy monocytes” value is “increases” and the “TNF in healthy monocytes” value was “increases”. Besides, in test [2], the “IL-6 production in response to TLR8” value is on record as “no effect” and the “TNF production in response to TLR8” value was “no effect”. In addition, in test [2] (p<0.001), the “production of IFN-α in response to TLR8” value is on record as “significantly increased” and the “production of IP-10 in response to TLR8” value is “significantly increased”.

The values above are taken from patent US12427183B2, “Methods of treating cancer, infectious disease, and autoimmune disease using chemokines” (New York Society for the Relief of the Ruptured and …, priority 2016, dated 2025).
